From patent publication US12390444B2, “Stabilizing vitamin C topical formulations” (MF Beauty Partners LLC, priority 2020, dated 2025)
Blank lines part the entries; values can stand above or below the molecule they belong to.

Key:
[1] = Solubility of optional additional components in non-aqueous solvents; assay type: physicochemical
From the text: Additional ingredients were chosen for their compatibility with (e.g., miscibility in) 1,3 propanediol, 1,2 propanediol, and 1,3 butanediol.

[2] = most solvents; cited from earlier work
skin [3] = settings: 4% HQ versus 5% Vitamin C; cited from earlier work
skin [4] = settings: in vivo; cited from earlier work
[5] = Protocol: This example was reproduced.
All mixtures were heated to 85° C.

erythema (skin redness) = settings: concentrations of 0.2%; cited from earlier work

Molecule: COc1cc(CC(C(C)=O)C(C)=O)ccc1O [Acetyl zingerone]
- solubility of acetyl zingerone ([1]; 0.5-1%, 1,3 propanediol, 1,2 propanediol and 1,3 butanediol): readily soluble

Molecule: Oc1ccc(O)cc1 [HQ, hydroquinone]
- improvement (skin [3]): 93%
- side-effects (skin [3]): 68.7%

Molecule: CC(C)(CO)[C@@H](O)C(=O)NCCCO [Panthenol]
- concentration at which inhibition of transepidermal water loss is apparent (skin [4]): ≥ 1%

Molecule: O=C1O[C@H]([C@@H](O)CO)C(O)=C1O [ascorbic acid, L-ascorbic acid]
- degradation on heating [5]: showed signs of degradation
- improvement (skin [3]): 62.5%

Molecule: CC1(C)[C@@H](O[C@H]2O[C@H](C(=O)O)[C@@H](O)[C@H](O)[C@H]2O[C@@H]2O[C@H](C(=O)O)[C@@H](O)[C@H](O)[C@H]2O)CC[C@]2(C)[C@H]3C(=O)C=C4[C@@H]5C[C@@](C)(C(=O)O)CC[C@]5(C)CC[C@@]4(C)[C@]3(C)CC[C@@H]12 [glycyrrhizic acid, Glycyrrhizic acid]
- solubility of glycyrrhizic acid ([1]; 1,3-propanediol): shows solubility

Now from value to molecule, other results behind:

- concentration of AzA that can be solubilized ([1]; 1,3 propanediol): up to 10%
- solubility of AzA in presence of hydroxyethyl urea ([1]; 1,3 propanediol): slightly increased
- AzA solubilized together with AA and U ([1]; with 10% AA, 5% U in a 1,3 propanediol base): 7.5%
Molecule: O=C(O)CCCCCCCC(=O)O [AzA, Azelaic acid]
- solubility of AzA [2]: very poorly soluble

- maximum concentrations soluble before urea starts to precipitate (the ceiling) ([5]; ascorbic acid together with urea in propylene glycol, butylene glycol and propanediol): 20%
Molecule: NC(N)=O [U, urea]

- solubility of madecassoside ([1]; concentration of 0.2%, 1,3 propanediol, 1,2 propanediol and 1,3 butanediol): soluble
Molecule: Madecassoside
- reduction of erythema (skin redness), clinical data (erythema (skin redness)): desirable ability to reduce erythema
